Measurements from article PMC13229503, “Dissecting mechanisms of ligand binding and conformational changes in the glutamine-binding protein” (eLife, 2026).
Like-named read-outs stand apart in the source and are kept apart here.

Assays:
GlnBP(111 C-192C) [1] = molecular target: T1, GlnBP(111 C-192C) (Escherichia coli, UniProt P0AEQ3, G214C/V133C); experiment: ITC of ligand binding to refolded, unlabeled GlnBP(111C-192C)
T1 construct: made in house; host or cells: E. coli BL21-pLysS
Description: (§1) The ITC measurements were performed in a MicroCal PEAQ-ITC isothermal titration calorimeter (Malvern Instruments). The prediction ITC software ‘MicroCal PEAQ-ITC Control’ was employed for designing and conducting the experiments. Once the Kd value and the binding stoichiometry (N) were assigned as predefined values, the concentration of both the protein and the titrant (ligand) stock solutions could be calculated by the ‘design-experiment’ function on the software to get an optimal sigmoidal one-site binding curve. GlnBP concentration was assessed using the Nanophotometer (N60 Touch, Implen GmbH) with at least three reading repeats to get accurate determinations of concentration values. For all ITC measurements, the temperature was set at 25 °C with stirring speed at 750 rev/min. The GlnBPs solution (10 μM in PBS buffer pH 7.4, 300 μL) was manually loaded into the sample cell. The titrant (L-glutamine, 100 μM in PBS buffer, pH 7.4) was automatically loaded into the titration syringe and injected in the sample cell with a titration speed of 2 μL every 150 s and a total of 19 injections. As a control experiment, L-glutamine was titrated into the sample cell containing PBS buffer without GlnBPs. All the titration data were analyzed using the MicroCal PEAQ-ITC Analysis Software.

GlnBP(111 C-192C) [2] = molecular target: T1, GlnBP(111 C-192C); experiment: Diffusion-based smFRET (µsALEX) ligand titration of doubly-labeled GlnBP(111C-192C); type: binding; settings: millimolar ligand, GlnBP(111C-192C) and GlnBP(59C-130C), AF555/AF647
Description: The refolded GlnBP(111 C-192C) and GlnBP(59 C-130C) variants were labeled with commercial maleimide derivatives of AF555/AF647 or ATTO 532/ATTO 643 ([Gebhardt et al., 2021]), and then purified by SEC. […] First, the His-tagged protein was incubated in 10 mM DTT in PBS buffer for 30 min to reduce all oxidized cysteine residues. Subsequently, the protein was diluted 10 times with PBS buffer and immobilized on a Nickel Sepharose 6 Fast Flow resin (GE Healthcare). The resin was washed extensively with milliQ water followed by PBS buffer pH 7.4. To remove the excess of DTT, the resin was washed with PBS buffer. […]
Single-molecule μsALEX experiments were carried out at room temperature on a custom-built confocal microscope. […] In general, the 532 and 640 nm diode lasers operated at 60 and 25 μW, respectively (measured at the back aperture of the objective), unless stated otherwise. Fluorescence light was collected by the same objective, focused onto a 50 μm pinhole and separated into two spectral channels (donor and acceptor fluorescence) by a dichroic beamsplitter (H643 LPXR, AHF, Germany). Fluorescence emission was collected by two avalanche photodiodes (SPCM-AQRH-64, Excelitas) after additional filtering (donor channel: BrightLine HC 582/75 and acceptor channel: Longpass 647 LP Edge Basic, both from Semrock, USA). […]

GlnBP [3] = settings: cited from earlier work
GlnBP(59 C-130C) = molecular target: T2, GlnBP(59 C-130C) (Escherichia coli, UniProt P0AEQ3, T152C/T81C); experiment: ITC of ligand binding to refolded, unlabeled GlnBP(59C-130C)
T2 construct: made in house; host or cells: E. coli BL21-pLysS
Description: as §1

GlnBP [4] = system: GlnBP; set-up: method as in Berntsson et al., 2010; settings: numerical fits of stopped-flow relaxation curves, Gln:GlnBP 1:1 and 2:1; ref Berntsson et al., 2010; cited from earlier work

T1 sequence (P0AEQ3 23-248 V133C/G214C): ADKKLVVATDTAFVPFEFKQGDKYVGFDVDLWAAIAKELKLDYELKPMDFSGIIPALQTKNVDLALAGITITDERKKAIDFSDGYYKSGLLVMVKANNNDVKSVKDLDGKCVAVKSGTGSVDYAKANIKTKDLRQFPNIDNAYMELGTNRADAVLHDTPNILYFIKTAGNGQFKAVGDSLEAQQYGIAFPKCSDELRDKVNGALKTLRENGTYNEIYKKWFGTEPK
T2 sequence (P0AEQ3 23-248 T81C/T152C): as the sequence (P0AEQ3 23-248 V133C/G214C) above, with T59C, C111V, T130C, C192G counted along it

| SMILES | Kd (GlnBP(111 C-192C) [1]) [µM] | ligand-induced FRET shift (conformational change) (GlnBP(111 C-192C) [2]) | affinity (GlnBP [3]; arginine, ref Chen et al., 2020) | Kd (GlnBP(59 C-130C)) [µM] | effective on-rate constant (GlnBP [4]) | affinity (GlnBP [3]; L-glutamine, ref Pistolesi and Tjandra, 2012, Su et al., 2007) |
| --- | --- | --- | --- | --- | --- | --- |
| N=C(N)NCCC[C@H](N)C(=O)O [L-Arginine] | 421 ± 292 | hardly any FRET shifts | millimolar affinity | 737 ± 133 |  |  |
| NC(=O)CC[C@H](N)C(=O)O [L-glutamine] |  |  |  |  | about 10^8 M^–1s^–1 | sub-micromolar affinity |
